Source: the supplement of paper PMC11208160

Assay: recombinant UMI read abundance after kanamycin selection (control-corrected) (log10(CPM+1)); higher = more efficient recombination; extreme values may be limits of the assay; sequences stand for … in AGTGCAGAGAAAATCGGCCAGTTTTCTCTGCCTGCAGTCCGCATGCCGTGGGACCCCTTGGGTTCTAACCTGTTGCCTAGATTTATGCAGCGGACTGCCTTTCTCCCAAAGTGATAAACCGG…AGGTTGGTTTCACT; site = the 11-nt donor
How it was run: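 Two replicates each of selected and unselected plating were used in this pooled Escherichia coli screen of donor and donor-binding-loop pairs for the IS621 bridge recombinase. Selection was with IPTG (0.07 mM) and kanamycin. Counts of recombinant UMIs, amplified across the donor–target junction, were converted to CPM, averaged, scaled by control-derived factors and reported as log10(CPM+1).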
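Further: IS621 bridge recombinase in Escherichia coli cells against a fixed T5 target plasmid.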

Sequence	recombinant UMI read abundance (log10)
AGGCACGCATGGACCGGTTTTCCCGGTAATCCGTATTTGGG (site AGGCACGCTCC)	1.76
GGAGTGGCATGGACCGGTTTTCCCGGTAATCCGTATTTGGT (site GGAGTGGCTAC)	0.575
TGCCTCGCATGGACCGGTTTTCCCGGTAATCCGTATTTGAT (site TGCCTCGCTAT)	0.0124
GTTGTTCCATGGACCGGTTTTCCCGGTAATCCGTATTTGGT (site TTTGTTCCTAC)	0.0162
GGACTAGCATGGACCGGTTTTCCCGGTAATCCGTATTTGTA (site GGACTAGCTTA)	2.56
AGCTTCCCATGGACCGGTTTTCCCGGTAATCCGTATTTGTG (site AGCTTCCCTCA)	0.00566
CGAGCAGCATGGACCGGTTTTCCCGGTAATCCGTATTTGCT (site CTAGCAGCTAG)	0.852
CGGGTGTCATGGACCGGTTTTCCCGGTAATCCGTATTTGCC (site CGGGGGTCTGG)	0
TAGCTAGCATGGACCGGTTTTCCCGGTAATCCGTATTTGAC (site TAGCTAGCTTT)	0.388
TAGCCGGCATGGACCGGTTTTCCCGGTAATCCGTATTTGGC (site TAGCCGGCTGC)	1.62
TACCCGTCATGGACCGGTTTTCCCGGTAATCCGTATTTGCT (site TACCCGTCTAG)	2.07
AATGTGCCATGGACCGGTTTTCCCGGTAATCCGTATTTGAC (site AATGTGGCTGT)	0
CACTTGACATGGACCGGTTTTCCCGGTAATCCGTATTTGGA (site CACTTGGCTTC)	0.369
AAAGCTTCATGGACCGGTTTTCCCGGTAATCCGTATTTGGG (site AAAGCTTCTCC)	0.447
CATGGCCCATGGACCGGTTTTCCCGGTAATCCGTATTTGTT (site CACGGCCCTAA)	0.00402
CCCGGTCCATGGACCGGTTTTCCCGGTAATCCGTATTTGCG (site CCCGGTCCTCG)	0
GAGCACGCATGGACCGGTTTTCCCGGTAATCCGTATTTGGG (site GAGCACGCTCC)	0.468
AGGGAGACATGGACCGGTTTTCCCGGTAATCCGTATTTGCG (site AGGAAGACTTG)	0.64
TAGGACTCATGGACCGGTTTTCCCGGTAATCCGTATTTGCG (site TAGGAGTCTCG)	1.05
CAAGCAGCATGGACCGGTTTTCCCGGTAATCCGTATTTGCT (site CAAGAAGCTAG)	0.892
GCCGACTCATGGACCGGTTTTCCCGGTAATCCGTATTTGCG (site GCCGACTCTCG)	2.35
AATGTAGCATGGACCGGTTTTCCCGGTAATCCGTATTTGCT (site AATGTAACTAG)	0
CACTTGGCATGGACCGGTTTTCCCGGTAATCCGTATTTGAA (site CACTTGGCTTC)	0.236
GCTGCCTCATGGACCGGTTTTCCCGGTAATCCGTATTTGGT (site GCTGCCTCTAC)	0.342
CGTTCGACATGGACCGGTTTTCCCGGTAATCCGTATTTGTT (site CGTTCGACTAA)	0.0172

Sequence	recombinant UMI read abundance (log10)
AATTATGCATGGACCGGTTTTCCCGGTAATCCGTATTTGGC (site AATTATGCTGC)	1.33
CATCGAACATGGACCGGTTTTCCCGGTAATCCGTATTTGCT (site CATCGAACTAG)	2.31
TGCATATCATGGACCGGTTTTCCCGGTAATCCGTATTTGAC (site TGCATATCTGT)	1.25
GGCAAACCATGGACCGGTTTTCCCGGTAATCCGTATTTGAA (site GGCAATCCTTT)	0
ACGATGACATGGACCGGTTTTCCCGGTAATCCGTATTTGCA (site ACGATGACTTG)	3.16
TAATGATCATGGACCGGTTTTCCCGGTAATCCGTATTTGGG (site TAATGAGCTCC)	0.0135
CCAGTATCATGGACCGGTTTTCCCGGTAATCCGTATTTGCA (site GCAGTATCTTG)	0
TGGGCAACATGGACCGGTTTTCCCGGTAATCCGTATTTGTG (site TGGGCAACTCA)	0.0056
TTAGCTGCATGGACCGGTTTTCCCGGTAATCCGTATTTGTG (site TTAGGTGCTCA)	0.0094
AATGTTACATGGACCGGTTTTCCCGGTAATCCGTATTTGCT (site AATGTAACTAG)	1.05
AGATTCCCATGGACCGGTTTTCCCGGTAATCCGTATTTGTG (site AGCTTCCCTCA)	0.0129
ACTCTAGCATGGACCGGTTTTCCCGGTAATCCGTATTTGCC (site ACTCTAGCTGG)	0
CTTTGCCCATGGACCGGTTTTCCCGGTAATCCGTATTTGCT (site CTTTGCCCTAG)	0.182
CGTGGAACATGGACCGGTTTTCCCGGTAATCCGTATTTGTT (site CGTGGGACTAA)	0.0232
TGGGCACCATGGACCGGTTTTCCCGGTAATCCGTATTTGCA (site GGGGCACCTTG)	0
TAGAAAACATGGACCGGTTTTCCCGGTAATCCGTATTTGCA (site TAGAAAACTTG)	1.54
AGCCTGGCATGGACCGGTTTTCCCGGTAATCCGTATTTGTT (site AGCCTAGCTAA)	0
CCAGGTGCATGGACCGGTTTTCCCGGTAATCCGTATTTGAA (site CCAGGTGCTCT)	0.218
AACCCAACATGGACCGGTTTTCCCGGTAATCCGTATTTGAC (site AACCCAACTGT)	2.68
ACTAGAACATGGACCGGTTTTCCCGGTAATCCGTATTTGTG (site ACTAGAACTCA)	1.35
GTATTATCATGGACCGGTTTTCCCGGTAATCCGTATTTGTG (site GTATTATCTCA)	2.22
CGGTATCCATGGACCGGTTTTCCCGGTAATCCGTATTTGTT (site CGGGATCCTAA)	0.0113
TTTGCGGCATGGACCGGTTTTCCCGGTAATCCGTATTTGCT (site TTTGGGGCTAG)	0.00746
ATTAGGCCATGGACCGGTTTTCCCGGTAATCCGTATTTGAC (site ATCAGGCCTGT)	0.0148
GTTGTTCCATGGACCGGTTTTCCCGGTAATCCGTATTTGGT (site GTTGGTCCTAC)	0.00325

Sequence	recombinant UMI read abundance (log10)
GGTCCTCCATGGACCGGTTTTCCCGGTAATCCGTATTTGTT (site GGTCCTCCTAA)	0.025
AGCCCTTCATGGACCGGTTTTCCCGGTAATCCGTATTTGAC (site AGCCGTTCTGT)	0
ACTATAGCATGGACCGGTTTTCCCGGTAATCCGTATTTGCA (site ACTATAGCTTG)	1.94
CTGGAAACATGGACCGGTTTTCCCGGTAATCCGTATTTGCA (site CTGGAACCTTG)	0.0058
GGCCGCCCATGGACCGGTTTTCCCGGTAATCCGTATTTGTT (site GGCCTCCCTAA)	0.0158
ATTGAGACATGGACCGGTTTTCCCGGTAATCCGTATTTGGT (site ATTGCGACTAC)	0.151
CGCCTTTCATGGACCGGTTTTCCCGGTAATCCGTATTTGAC (site AGCCTTTCTGT)	0
CGTACGTCATGGACCGGTTTTCCCGGTAATCCGTATTTGTT (site AGTACGTCTAA)	0.0741
GTTCAAGCATGGACCGGTTTTCCCGGTAATCCGTATTTGTC (site GTTCAAGCTGA)	1.84
AGTAATGCATGGACCGGTTTTCCCGGTAATCCGTATTTGAG (site AGTAATGCTCT)	2.15
ACCGCTGCATGGACCGGTTTTCCCGGTAATCCGTATTTGGC (site ACCGCTGCTGC)	2.08
ATTGCGGCATGGACCGGTTTTCCCGGTAATCCGTATTTGGG (site ATTGCGGCTCC)	0.0219
CAATGCTCATGGACCGGTTTTCCCGGTAATCCGTATTTGAT (site CAATGCTCTGT)	1.36
CGGGAAACATGGACCGGTTTTCCCGGTAATCCGTATTTGAT (site CGGGAACCTAT)	0.00381
CCAGCTGCATGGACCGGTTTTCCCGGTAATCCGTATTTGAT (site CCAGATGCTAT)	0.00428
AAAGTAGCATGGACCGGTTTTCCCGGTAATCCGTATTTGGC (site AAAGTAGCTGC)	2.01
GGGCACCCATGGACCGGTTTTCCCGGTAATCCGTATTTGTT (site GGGCACCCTAA)	0.325
CAAGGCTCATGGACCGGTTTTCCCGGTAATCCGTATTTGAA (site CAACGCTCTTT)	0.00296
AACGGTCCATGGACCGGTTTTCCCGGTAATCCGTATTTGAT (site AACCGTCCTAT)	0
AAAGGGGCATGGACCGGTTTTCCCGGTAATCCGTATTTGGG (site AAAGGGGCTCC)	0
AGCTCCGCATGGACCGGTTTTCCCGGTAATCCGTATTTGGG (site AGCTCGGCTCC)	0.0125
AAAACCCCATGGACCGGTTTTCCCGGTAATCCGTATTTGGA (site AAAACCCCTTC)	0.00874
CAAAACACATGGACCGGTTTTCCCGGTAATCCGTATTTGCC (site CAAAACACTGG)	0
AGCCTGGCATGGACCGGTTTTCCCGGTAATCCGTATTTGTT (site AGCCTGGCTAA)	0.0154
AGGAAGTCATGGACCGGTTTTCCCGGTAATCCGTATTTGCA (site AGGAAGCCTTG)	0.641
